Laboratory results published in patent US20030211469A1, “Inhibiting hepatitis c virus processing and replication” (priority 2003, published 2003).
Read-outs that look alike come from different tables or passages of the source.

Key:
HCV NS2/3 (810-1615BK) [1] = molecular target: T1, HCV NS2/3 (810-1615BK) (Hepatitis C virus genotype 1b, UniProt P26663); assay type: biochemical, Hepatitis C virus (BK strain); details: for NS2/3 Processed (% of Control): 5 mM final concentration of nucleoside analog; for inhibition at the maximum concentration tested: 5 mM; for inhibition at the maximum concentration tested / IC50: residual ATP approximately 1 mM; for IC50: titration, read-out: IC50, inhibition of NS2/3 processing
T1 construct: HCV residues 810-1615 of the BK strain; made in house; host or cells: in vitro translation in rabbit reticulocyte lysate from plasmid pCITE 810-1615BK
Experimental: (§1) HCV residues 810-1615 of the BK strain, which includes all of NS2 and most of NS3 (termed 810-1615BK), was produced from the plasmid pCITE 810-1615BK (a gift from Dr. Nicola La Monica) and has been described previously by Pieroni, et al., (1997) J. Virol. 71, 6373. Following plasmid linearization with BLP1, RNA was transcribed with T7 RNA polymerase and purified. Protein translation was in rabbit reticulocyte lysate, 30° C. for 40 minutes using [^35S]-methionine as a label. Translation was then blocked by the addition of cycloheximide (250 μM final) and the samples were immediately frozen on dry ice.
(§2) Prior to processing experiments, an aliquot of translated NS2/3 was thawed on ice. Processing of 810-1615BK was initiated by addition to room temperature solutions containing Triton X-100 at 1%, as described by Pieroni, et al., (1997) J. Virol. 71, 6373. The distribution of [^35S]-labeled proteins on dried gels was determined with a Phosphorimager (Molecular Dynamics). Product bands were quantified and expressed as a proportion of total signal in the gel lane so that variations in gel lane loading were normalized.

[2] = molecular target: T2, NS2/3 fusion protein Ubi-849-1207J-BLA (UniProt P26662+P62593, S1165A); test: Processing of NS2/3 fusion protein Ubi-849-1207J-BLA in reticulocyte lysate; assay type: biochemical, Hepatitis C virus (J strain)
T2 construct: NS2/3 residues 849-1207 (J strain); ubiquitin (N, cleaved yes); made in house; host or cells: in vitro translation in rabbit reticulocyte lysate from plasmid pM3A
Text: The plasmid pM3A, derived from pCDNA (Invitrogen), encodes a fusion protein termed Ubi-849-1207J-BLA that contains ubiquitin at its N-terminus, followed by NS2/3 residues 849-1207 (J strain) linked to bacterial TEM-1 β-lactamase at the C-terminus. […] RNA synthesis for this construct is driven by the T7 promoter, and RNA was separately prepared for translation as in Example 1. Upon translation in rabbit reticulocyte lysate, the ubiquitin is immediately cleaved from the protein by cellular ubiquitin hydrolases. (Hochstrasser, (1996) Annual Review of Genetics 30, 405.)
The cleavable linkage (SEQ. ID. NO. 1) is present as ubiquitin↓ArgHisGlySerGluPhe-NS2/3. […] Translations were limited to 30 minutes for that reason. Quantification of processing at room temperature was by comparison of samples prepared immediately after addition of cycloheximide with later time samples.

[3] = system: ubiquitin-ubiquitin-ubiquitin-NS2/3-β-lactamase in Jurkat cells; test: Cell-based NS2/3 cleavage assay, Jurkat cells, β-lactamase/CCF2 readout; design: species or system Hepatitis C virus; details: for IC50: read-out: IC50, NS2/3 cleavage in cells, 5 hours treatment, 460 nm/530 nm ratio
Experimental: Inhibitor treatment was for 5 hours, followed by addition of cycloheximide to stop protein synthesis (30 minutes) and subsequent addition of the β-lactamase substrate, CCF2. After 2 hours, β-lactamase activity was quantified by fluorescence readings (460 nm/530 nm ratio). Lower 460 nm/530 nm ratios indicate inhibition of NS2/3 cleavage.
Through the use of a neomycin-selectable transfection vector, stable expression of NS2/3 in Jurkat cells was obtained. The plasmid pUbBla3X-NS2/3-3A conferring neomycin (G418) resistance, expresses a fusion of the NS2/3 protein with 3 ubiquitin domains appended to the N-terminus and β-lactamase at the C-terminus. The complete uncleaved protein has an in vivo half-life estimated to be 5-10 minutes.
The plasmid pUbBla3X NS2/3-3A was transfected into Jurlcat cells. The CMV promoter-driven ORF of the plasmid encodes a 91 kDa protein, ubiquitin-ubiquitin-ubiquitin-NS2/3-β-lactamase, with the C-termini of the 3 ubiquitin domains rendered non-cleaveable to ubiquitin-C-terminal hydrolases (ubiquitin C-terminal sequence ArgLeuArgGlyVal, SEQ. ID. NO. 2). The NS2/3 region includes HCV residues 849-1207. The β-lactamase domain is TEM-1 from E. coli. Expression of the P-lactamase moiety is readily detected with the fluorogenic, cell-penneant substrate, CCF2. (Zlokarnik, et al., (1998) Scienice 279, 84.) Transfectants were sorted by FACS using treatment with CCF2 to indicate β-lactamase expression (Zlokarnik, et al., (1998) Science 279, 84), and individual clones were grown under G418 selection. The full fusion protein expressed is highly unstable to ubiquitin-directed proteosomal degradation due to its ubiquitin N-terminal tag, while the C-terminal product of NS2/3 cleavage, NS3-β-lactamase, is stable for hours. Thus, build-up in the cells of O-lactamase activity, as indicated by CCF2 hydrolysis (high 460 nm1530 nm ratio) is indicative of successful NS2/3 cleavage, and suppression of P-lactamase activity indicates NS2/3 inhibition.
(See, Grakoui, et al., (1993) P.N.A.S. USA 90, 10583, Selby, et al., (1993) J. Gen. Virol. 74, 1103, fijikata, et al., (1993) J. Virol. 67, 4665, Santolini, et al., (1995) J. Viol. 69, 7461, D'Souza, et al., (1994) J. Gen. Virol. 75, 3469, and Pieroni, et al., (1997) J. Virol. 71, 6373.) NS2/3 self-cleavage separates the destabilizing ubiquitin degradation signal at the N-terminus from the NS3-O-lactamase C-terminal product, thus stabilizing the β-lactamase activity within the cell.

HCV NS2/3 (810-1615BK) [4] = assay type: biochemical, Hepatitis C virus (BK strain); details: for NS2/3 Processed (% of Control): present during synthesis and processing, 30 minutes
Experimental: as §1, §2
NS2/3 processing reactions were performed with 810-1615BK. […] (Darke, et al., (1999) J. Biol. Chem. 274, 34511.) Inhibitors were dissolved in DMSO and protected from light. Dilutions were in DMSO, such that the final concentration of DMSO was 2% for in vitro experiments and 1% for cell-based assays. […] (Hu, et al., (1996) P.N.A.S. USA 93, 1060; Thulasiraman, et al., (1996) Biochemistry 35, 13443 (1996), Schneider, et al., (1996) P.N.A.S. USA 93, 14536.)
to the data, where a is the minimal level of fractional activity (tending to 0), a+b is the maximal level (tending to 1), x is the concentration of inhibitor, c is the IC50 and d is a slope coefficient. […] Values given are the average of two determinations.

[5] = titration, 810-1615BK, average of two determinations

## Nc1ncnc2c1ncn2[C@@H]1O[C@H](COP(=O)(O)OP(=O)(O)NP(=O)(O)O)[C@@H](O)[C@H]1O [AMP-PNP]
HCV NS2/3 (810-1615BK) [1]
  NS2/3 Processed (% of Control): 40 % of Control
  inhibition at the maximum concentration tested: 60%
  IC50: 4000 µM

## Nc1ncnc2c1ncn2[C@@H]1O[C@H](COP(=O)(O)OP(=O)(O)OP(O)(O)=S)[C@@H](O)[C@H]1O [ATPγS]
HCV NS2/3 (810-1615BK) [1]
  NS2/3 Processed (% of Control): 24 % of Control
  inhibition at the maximum concentration tested: 77%
  IC50: 2000 µM
[2]
  Inhibition of NS2/3 processing, J-strain fusion protein: Inhibition by ATPγS was also observed

## COC1=C2C[C@@H](C)C[C@H](OC)[C@H](O)[C@@H](C)/C=C(\C)[C@H](OC(N)=O)[C@@H](OC)/C=C\C=C(/C)C(=O)NC(=CC1=O)C2=O [Geldanamycin]
[3]
  inhibition at the highest concentrations tested: nearly complete
  IC50: 0.04 µM

## CO[C@H]1[C@@H](OC)C[C@H](C)[C@@H](OC)C2=CC(=O)C=C(NC(=O)/C(C)=C/C=C\[C@H](OC)[C@@H](OC(N)=O)/C(C)=C/[C@@H]1C)C2=O [Herbimycin A, herbimycin A]
HCV NS2/3 (810-1615BK) [4]; 1 μM
  NS2/3 Processed (% of Control): 38 % of Control
HCV NS2/3 (810-1615BK) [4]; 10 μM
  NS2/3 Processed (% of Control): 22 % of Control

## C[C@@H]1C[C@H]2O[C@@H]2/C=C\C=C\C(=O)Cc2c(Cl)c(O)cc(O)c2C(=O)O1 [Radicicol]
[3]
  inhibition at the highest concentrations tested: nearly complete
  IC50: 0.013 µM
HCV NS2/3 (810-1615BK) [4]; [5]
  EC50: 0.22 ± 0.12 µM
  Maximum Inhibition (%): 51%
